Reference: US20260297080A1, “BICYCLIC COMPOUNDS AS CDK INHIBITORS” (BeOne Medicines I GmbH, priority 2022, published 2026)
pIC50: −log10 of the molar value.

Legend:
CDK2/Cyclin E1 = CDK2/Cyclin E1 (Homo sapiens, UniProt P24941); assay: CDK2/Cyclin E1 Biochemical Assay (TR-FRET), 0.060 mM ATP; details: 0.15 μM Rb (Ser780)-biotin substrate, pH7.0, 60 min preincubation, 120 min reaction, room temperature
Summary of the method: (§1)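 Kinase preincubated with compound (0–10 μM) 60 min at room temperature, then reaction started with ATP and 0.15 μM Rb (Ser780)-biotin peptide and run 120 min in HEPES pH 7.0 buffer with 50 mM MgCl2. Phospho-Rb detected by Eu-cryptate anti-pRb(Ser780)/streptavidin-XL665 TR-FRET (665/620 nm ratio); IC50 from four-parameter logistic fit.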

CDK1/Cyclin B1 = CDK1/Cyclin B1 (Homo sapiens, UniProt P06493); assay: CDK1/Cyclin B1 Biochemical Assay (TR-FRET), 0.015 mM ATP; details: 0.15 μM Rb (Ser780)-biotin substrate, pH7.0, 60 min preincubation, 120 min reaction, room temperature
Sequence of CDK1/Cyclin B1 (P06493 whole entry): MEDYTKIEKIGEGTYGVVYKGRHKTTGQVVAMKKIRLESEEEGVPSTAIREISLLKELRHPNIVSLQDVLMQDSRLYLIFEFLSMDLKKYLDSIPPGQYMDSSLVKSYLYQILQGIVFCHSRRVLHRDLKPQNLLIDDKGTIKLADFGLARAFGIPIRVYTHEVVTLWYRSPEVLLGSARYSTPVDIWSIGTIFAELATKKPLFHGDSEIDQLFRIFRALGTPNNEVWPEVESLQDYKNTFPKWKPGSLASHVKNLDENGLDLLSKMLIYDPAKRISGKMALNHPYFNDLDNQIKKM
Sequence of CDK1/Cyclin B1 (P14635 whole entry partner): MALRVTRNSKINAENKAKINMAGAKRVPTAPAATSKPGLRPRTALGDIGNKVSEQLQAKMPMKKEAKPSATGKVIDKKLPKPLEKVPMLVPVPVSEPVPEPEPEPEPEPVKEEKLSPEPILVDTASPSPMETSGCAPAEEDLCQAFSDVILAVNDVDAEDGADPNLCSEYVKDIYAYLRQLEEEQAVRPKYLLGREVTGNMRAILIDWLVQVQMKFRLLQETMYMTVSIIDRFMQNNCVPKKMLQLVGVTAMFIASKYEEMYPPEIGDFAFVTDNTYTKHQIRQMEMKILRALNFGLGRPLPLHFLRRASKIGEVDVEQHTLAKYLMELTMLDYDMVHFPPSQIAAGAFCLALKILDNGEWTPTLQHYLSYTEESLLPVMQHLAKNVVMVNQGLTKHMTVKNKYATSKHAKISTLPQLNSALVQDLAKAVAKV
Summary of the method: as §1

CC(C)NC(=O)O[C@H]1CC[C@@H](c2cc(Nc3ccc4c(c3F)CN(C3CCNC(=O)C3)S4(=O)=O)n[nH]2)C1 (relative stereo) [Example 81, cis-3-(3-((4-fluoro-1,1-dioxido-2-(2-oxopiperidin-4-yl)-2,3-dihydrobenzo[d]isothiazol-5-yl)amino)-1H-pyrazol-5-yl)cyclopentyl isopropylcarbamate]
pIC50 (CDK2/Cyclin E1): 8.14
pIC50 (CDK1/Cyclin B1): 6.27

CC(C)NC(=O)O[C@H]1CC[C@@H](c2cc(Nc3ccc4c(c3F)S(=O)(=O)NC4(C)C)n[nH]2)C1 (relative stereo) [Example 13, cis-3-(3-((7-fluoro-3,3-dimethyl-1,1-dioxido-2,3-dihydrobenzo[d]isothiazol-6-yl)amino)-1H-pyrazol-5-yl)cyclopentyl isopropylcarbamate]
pIC50 (CDK2/Cyclin E1): 7.68
pIC50 (CDK1/Cyclin B1): 6.25

CN1c2ccc(Nc3cc([C@@H]4CC[C@H](OC(=O)N[C@H]5CC[C@@H](O)CC5)C4)[nH]n3)c(F)c2CS1(=O)=O (relative stereo) [Example 347, cis-3-(3-((4-fluoro-1-methyl-2,2-dioxido-1,3-dihydrobenzo[c]isothiazol-5-yl)amino)-1H-pyrazol-5-yl)cyclopentyl((1s,4s)-4-hydroxycyclohexyl)carbamate]
pIC50 (CDK2/Cyclin E1): 8.03
pIC50 (CDK1/Cyclin B1): 6.39

CCCNC(=O)O[C@H]1CC[C@@H](c2cc(Nc3ccc4c(c3F)CS(=O)(=O)N4CC(F)(F)F)n[nH]2)C1 [Example 266b]
pIC50 (CDK2/Cyclin E1): 8.46
pIC50 (CDK1/Cyclin B1): 7.23

CC(C)NC(=O)O[C@H]1CC[C@@H](c2cc(Nc3ccc4c(c3)C(C)S(=O)(=O)N4C)n[nH]2)C1 (relative stereo) [Example 207, cis-3-(3-((1,3-dimethyl-2,2-dioxido-1,3-dihydrobenzo[c]isothiazol-5-yl)amino)-1H-pyrazol-5-yl)cyclopentyl isopropylcarbamate]
pIC50 (CDK2/Cyclin E1): 8.18
pIC50 (CDK1/Cyclin B1): 7.46

CC(C)NC(=O)OC1CC(c2cc(Nc3ccc4c(c3F)CNS4(=O)=O)n[nH]2)C1 (stereo not shown) [Example 137, 3-(3-((4-fluoro-1,1-dioxido-2,3-dihydrobenzo[d]isothiazol-5-yl)amino)-1H-pyrazol-5-yl)cyclobutyl isopropylcarbamate]
pIC50 (CDK2/Cyclin E1): 7.46
pIC50 (CDK1/Cyclin B1): 6.43

CC(C)NC(=O)O[C@H]1CC[C@@H](c2cc(Nc3ccc4c(c3F)C(C)NS4(=O)=O)n[nH]2)C1 (single isomer, unassigned) [Example 51a, cis-3-(3-((4-fluoro-3-methyl-1,1-dioxido-2,3-dihydrobenzo[d]isothiazol-5-yl)amino)-1H-pyrazol-5-yl)cyclopentyl isopropylcarbamate]
pIC50 (CDK2/Cyclin E1): 8.60
pIC50 (CDK1/Cyclin B1): 6.71

CC(C)NC(=O)O[C@H]1CC[C@@H](c2cc(Nc3ccc4c(c3)CS(=O)(=O)N4C(C)C3COC3)n[nH]2)C1 (relative stereo) [Example 208, cis-3-(3-((1-(1-(oxetan-3-yl)ethyl)-2,2-dioxido-1,3-dihydrobenzo[c]isothiazol-5-yl)amino)-1H-pyrazol-5-yl)cyclopentyl isopropylcarbamate]
pIC50 (CDK2/Cyclin E1): 7.80
pIC50 (CDK1/Cyclin B1): 6.58

Cc1cc2c(cc1Nc1cc([C@@H]3CC[C@H](OC(=O)NC(C)C)C3)[nH]n1)S(=O)(=O)NC2 (relative stereo) [Example 185, cis-3-(3-((5-methyl-1,1-dioxido-2,3-dihydrobenzo[d]isothiazol-6-yl)amino)-1H-pyrazol-5-yl)cyclopentyl isopropylcarbamate]
pIC50 (CDK2/Cyclin E1): 6.62
pIC50 (CDK1/Cyclin B1): 5.85

CC1(NC(=O)O[C@H]2CC[C@@H](c3cc(Nc4ccc5c(c4F)CN(C4CC4)S5(=O)=O)n[nH]3)C2)CC1 (single isomer, unassigned) [Example 119b, cis-3-(3-((2-cyclopropyl-4-fluoro-1,1-dioxido-2,3-dihydrobenzo[d]isothiazol-5-yl)amino)-1H-pyrazol-5-yl)cyclopentyl(1-methylcyclopropyl)carbamate]
pIC50 (CDK2/Cyclin E1): 8.72
pIC50 (CDK1/Cyclin B1): 6.94

CCCNC(=O)O[C@H]1CC[C@@H](c2cc(Nc3ccc4c(c3F)C(C)NS4(=O)=O)n[nH]2)C1 (single isomer, unassigned) [Example 53a, cis-3-(3-((4-fluoro-3-methyl-1,1-dioxido-2,3-dihydrobenzo[d]isothiazol-5-yl)amino)-1H-pyrazol-5-yl)cyclopentyl propylcarbamate]
pIC50 (CDK2/Cyclin E1): 8.20
pIC50 (CDK1/Cyclin B1): 6.44

CC[C@H](C)NC(=O)O[C@H]1CC[C@@H](c2cc(Nc3ccc4c(c3)CS(=O)(=O)N4)n[nH]2)C1 (single isomer, unassigned) [Example 323b]
pIC50 (CDK2/Cyclin E1): 8.21
pIC50 (CDK1/Cyclin B1): 7.77

CC(C)NC(=O)O[C@H]1CC[C@@H](c2cc(Nc3ccc4c(c3F)CN(C3COC3)S4(=O)=O)n[nH]2)C1 (single isomer, unassigned) [Example 133a, cis-3-(3-((4-fluoro-2-(oxetan-3-yl)-1,1-dioxido-2,3-dihydrobenzo[d]isothiazol-5-yl)amino)-1H-pyrazol-5-yl)cyclopentyl isopropylcarbamate]
pIC50 (CDK2/Cyclin E1): 7.62
pIC50 (CDK1/Cyclin B1): 5.97

CC(C)CNC(=O)O[C@H]1CC[C@@H](c2cc(Nc3cc4c(cc3F)N(CCO)S(=O)(=O)C4)n[nH]2)C1 (relative stereo) [Example 298, cis-3-(3-((6-fluoro-1-(2-hydroxyethyl)-2,2-dioxido-1,3-dihydrobenzo[c]isothiazol-5-yl)amino)-1H-pyrazol-5-yl)cyclopentyl isobutylcarbamate]
pIC50 (CDK2/Cyclin E1): 8.33
pIC50 (CDK1/Cyclin B1): 6.78

CC(C)NC(=O)O[C@H]1CC[C@@H](c2cc(Nc3ccc4c(c3)CNS4(=O)=O)n[nH]2)C1 (relative stereo) [Example 2, cis-3-(3-((1,1-dioxido-2,3-dihydrobenzo[d]isothiazol-5-yl)amino)-1H-pyrazol-5-yl)cyclopentyl isopropylcarbamate]
pIC50 (CDK2/Cyclin E1): 9.05
pIC50 (CDK1/Cyclin B1): 7.44

CC1(NC(=O)O[C@@H]2CC[C@H](c3cc(Nc4ccc5c(c4F)CS(=O)(=O)N5)n[nH]3)C2)CC1 (single isomer, unassigned) [Example 388a]
pIC50 (CDK2/Cyclin E1): 8.92
pIC50 (CDK1/Cyclin B1): 7.44

CC(CC(F)(F)F)NC(=O)O[C@H]1CC[C@@H](c2cc(Nc3ccc4c(c3F)CNS4(=O)=O)n[nH]2)C1 (relative stereo) [Example 165, cis-3-(3-((4-fluoro-1,1-dioxido-2,3-dihydrobenzo[d]isothiazol-5-yl)amino)-1H-pyrazol-5-yl)cyclopentyl(4,4,4-trifluorobutan-2-yl)carbamate]
pIC50 (CDK2/Cyclin E1): 8.89
pIC50 (CDK1/Cyclin B1): 7.31

CC1(NC(=O)O[C@H]2CC[C@@H](c3cc(Nc4ccc5c(c4F)CS(=O)(=O)N5CC(F)(F)F)n[nH]3)C2)COC1 (relative stereo) [Example 409, cis-3-(3-((4-fluoro-2,2-dioxido-1-(2,2,2-trifluoroethyl)-1,3-dihydrobenzo[c]isothiazol-5-yl)amino)-1H-pyrazol-5-yl)cyclopentyl(3-methyloxetan-3-yl)carbamate]
pIC50 (CDK2/Cyclin E1): 8.24
pIC50 (CDK1/Cyclin B1): 6.68

CC(C)NC(=O)O[C@H]1CC[C@@H](c2cc(Nc3ccc4c(c3)S(=O)(=O)NC4C)[nH]n2)C1 (single isomer, unassigned) [Example 5b, cis-3-(5-((3-methyl-1,1-dioxido-2,3-dihydrobenzo[d]isothiazol-6-yl)amino)-1H-pyrazol-3-yl)cyclopentyl isopropylcarbamate]
pIC50 (CDK2/Cyclin E1): 9.00
pIC50 (CDK1/Cyclin B1): 7.85

CCCNC(=O)O[C@H]1CC[C@@H](c2cc(Nc3ccc4c(c3F)C(C)NS4(=O)=O)n[nH]2)C1 (single isomer, unassigned) [Example 53c, cis-3-(3-((4-fluoro-3-methyl-1,1-dioxido-2,3-dihydrobenzo[d]isothiazol-5-yl)amino)-1H-pyrazol-5-yl)cyclopentyl propylcarbamate]
pIC50 (CDK2/Cyclin E1): 7.82
pIC50 (CDK1/Cyclin B1): 6.16

CC(C)NC(=O)O[C@H]1CC[C@@H](c2cc(Nc3ccc4c(c3F)CN(C3CC3)S4(=O)=O)n[nH]2)C1 (single isomer, unassigned) [Example 116a, cis-3-(3-((2-cyclopropyl-4-fluoro-1,1-dioxido-2,3-dihydrobenzo[d]isothiazol-5-yl)amino)-1H-pyrazol-5-yl)cyclopentyl isopropylcarbamate]
pIC50 (CDK2/Cyclin E1): 8.27
pIC50 (CDK1/Cyclin B1): 6.29

CC(C)NC(=O)O[C@H]1CC[C@@H](c2cc(Nc3ccc4c(c3)C(C)(C)S(=O)(=O)N4)n[nH]2)C1 (relative stereo) [Example 194, cis-3-(3-((3,3-dimethyl-2,2-dioxido-1,3-dihydrobenzo[c]isothiazol-5-yl)amino)-1H-pyrazol-5-yl)cyclopentyl isopropylcarbamate]
pIC50 (CDK2/Cyclin E1): 8.43
pIC50 (CDK1/Cyclin B1): 7.07

CC(C)NC(=O)O[C@H]1CC[C@@H](c2cc(Nc3ccc4c(c3F)NS(=O)(=O)C4)n[nH]2)C1 (relative stereo) [Example 312, cis-3-(3-((7-fluoro-2,2-dioxido-1,3-dihydrobenzo[c]isothiazol-6-yl)amino)-1H-pyrazol-5-yl)cyclopentyl isopropylcarbamate]
pIC50 (CDK2/Cyclin E1): 8.37
pIC50 (CDK1/Cyclin B1): 6.83

Cc1c(Nc2cc([C@@H]3CC[C@H](OC(=O)NC(C)C)C3)[nH]n2)ccc2c1CS(=O)(=O)N2C (relative stereo) [Example 243, cis-3-(3-((1,4-dimethyl-2,2-dioxido-1,3-dihydrobenzo[c]isothiazol-5-yl)amino)-1H-pyrazol-5-yl)cyclopentyl isopropylcarbamate]
pIC50 (CDK2/Cyclin E1): 7.43
pIC50 (CDK1/Cyclin B1): 6.01

CCCNC(=O)O[C@@H]1CC[C@H](c2cc(Nc3ccc4c(c3F)CS(=O)(=O)N4)n[nH]2)C1 (single isomer, unassigned) [Example 387a]
pIC50 (CDK2/Cyclin E1): 8.52
pIC50 (CDK1/Cyclin B1): 6.86

CC(C)NC(=O)O[C@H]1CC[C@@H](c2cc(Nc3ccc4c(c3CO)CNS4(=O)=O)n[nH]2)C1 (relative stereo) [Example 345, cis-3-(3-((4-(hydroxymethyl)-1,1-dioxido-2,3-dihydrobenzo[d]isothiazol-5-yl)amino)-1H-pyrazol-5-yl)cyclopentyl isopropylcarbamate]
pIC50 (CDK2/Cyclin E1): 7.19
pIC50 (CDK1/Cyclin B1): 5.76
